Data: paper PMC4471902, “Block of NMDA receptor channels by endogenous neurosteroids: implications for the agonist induced conformational states of the channel vestibule” (Scientific Reports, 2015)

Assays:
[1] = target: T1, GluN1(T648A)/GluN2B receptors (Rattus norvegicus, UniProt P35439+Q00960, T648A); experiment: Whole-cell patch-clamp of GluN1(T648A)/GluN2B receptor responses in HEK293 cells; assay type: cell-based; details: for sensitivity of spontaneous currents (absence of glutamate and glycine) to antagonist: 100 μM
T1 construct: expressed in transfected cells; host or cells: HEK293
Source text: (§1) Human embryonic kidney (HEK293) cells were transfected with expression vectors containing: GluN1–1a (GenBank accession number U08261)[52]; GluN2B (GenBank accession number M91562); GluN1-4a(F484A), (generous gift from Dr. J. J. Woodward)[53] (Smothers & Woodward, 2009); GluN3A (generous gift from Dr. S. A. Lipton)[54] (GenBank accession number NM_138546); GluN1ΔN with deleted 354 amino acids in the NTD (32 to 386); GluN1ΔC with an introduced stop codon in 838 of the CTD GluN2BΔN) with deleted 354 amino acids in the NTD (32 to 386); GluN2BΔC with an introduced stop codon in 844 of the CTD[55]; GluR0 (GenBank accession number Synechocystis PCC 6803) (generous gift from Dr. M. L. Mayer)[18]; and green fluorescent protein (GFP) (pQBI 25, Takara, Tokyo, Japan) genes, as described previously. The Quick-Change site-directed mutagenesis kit (Agilent Technologies, Santa Clara, CA, USA) was used to generate specific point mutations in the M1/M3 region according to the manufacturer’s instructions using manually designed primers purchased from Sigma. Modified DNA plasmids were transformed into competent XL10-Gold E.coli cells, positive clones were selected, and isolated DNA was sequenced. […] All mutations were verified by DNA sequencing (Macrogen, Seoul, Korea or SeQme, Dobris, Czech Republic). The amino acids are numbered according to the full-length protein, including the signal peptide, with the initiating methionine as 1.
(§2) Experiments were performed 24–48 hrs after transfection on cells transfected with GluN1/GluN2B/GFP plasmids. Whole-cell voltage-clamp recordings from HEK293 cells were made with a patch-clamp amplifier (Axopatch 200B; Axon Instruments, Inc., Foster City, CA) after a capacitance and series resistance (<10 MΩ) compensation of 80–90%.
(§3) Patch pipettes (3–5 MΩ) were filled with a solution containing (in mM): 120 gluconic acid, 15 CsCl, 10 BAPTA, 10 HEPES, 3 MgCl2, 1 CaCl2, and 2 ATP-Mg salt (pH-adjusted to 7.2 with CsOH). When GluR0 receptor responses were studied, intracellular solution contained (in mM): 120 gluconic acid, 15 KCl, 10 BAPTA, 10 HEPES, 3 MgCl2, 1 CaCl2, and 2 ATP-Mg salt (pH-adjusted to 7.2 with KOH). Extracellular solution (ECS) contained the following (in mM): 160 NaCl, 2.5 KCl, 10 HEPES, 10 glucose, 0.2 EDTA, and 0.7 CaCl2 (pH-adjusted to 7.3 with NaOH). Glycine (10 μM), an NMDAR co-agonist, was present in the control and test solutions. All (PA-S and PA-A) solutions were made from freshly prepared 20 mM PA-S and 5 mM PA-A stock in dimethyl sulfoxide (DMSO). The final dilution to ECS was made at 50 °C and followed by 1 min sonication (SONOREX DIGITEC DT 100/H, BADELIN electronic, Berlin, Germany). The same concentration of DMSO was added to all extracellular solutions. Drug applications were made with a microprocessor-controlled multibarrel fast-perfusion system. Changes in the glutamate-induced current in HEK293 cells transfected by GluN1/GluN2B subunits were used to estimate the rate of solution exchange around the cell. Standard ECS was switched to the ECS diluted by water (50%) during glutamate application. The osmolarity was adjusted by sucrose to match the standard ECS. Glutamate (1 mM), glycine (10 μM) and pH was maintained constant in both solutions. The solution exchange rate was estimated to be τ = 4.3 ± 0.3 ms (n = 6) for lifted cells and τ = 12.0 ± 0.9 ms (n = 6) for the attached cells.
The IC50 was determined from a single dose of a steroid using the formula [drawing 1] where I is the relative degree of inhibition and [steroid] is the steroid concentration used. Calculations of IC50 were made assuming 100% inhibition at saturating steroid concentration this is valid for both PA-S and PA-A[12][13]. […]

[2] = target: T2, GluN1(A649T)/GluN2B receptors (Rattus norvegicus, UniProt P35439+Q00960, A649T); experiment: Whole-cell patch-clamp of GluN1(A649T)/GluN2B receptor responses in HEK293 cells; assay type: cell-based
T2 construct: expressed in transfected cells; host or cells: HEK293
T2 sequence (Q00960 27-1482, other chains not shown): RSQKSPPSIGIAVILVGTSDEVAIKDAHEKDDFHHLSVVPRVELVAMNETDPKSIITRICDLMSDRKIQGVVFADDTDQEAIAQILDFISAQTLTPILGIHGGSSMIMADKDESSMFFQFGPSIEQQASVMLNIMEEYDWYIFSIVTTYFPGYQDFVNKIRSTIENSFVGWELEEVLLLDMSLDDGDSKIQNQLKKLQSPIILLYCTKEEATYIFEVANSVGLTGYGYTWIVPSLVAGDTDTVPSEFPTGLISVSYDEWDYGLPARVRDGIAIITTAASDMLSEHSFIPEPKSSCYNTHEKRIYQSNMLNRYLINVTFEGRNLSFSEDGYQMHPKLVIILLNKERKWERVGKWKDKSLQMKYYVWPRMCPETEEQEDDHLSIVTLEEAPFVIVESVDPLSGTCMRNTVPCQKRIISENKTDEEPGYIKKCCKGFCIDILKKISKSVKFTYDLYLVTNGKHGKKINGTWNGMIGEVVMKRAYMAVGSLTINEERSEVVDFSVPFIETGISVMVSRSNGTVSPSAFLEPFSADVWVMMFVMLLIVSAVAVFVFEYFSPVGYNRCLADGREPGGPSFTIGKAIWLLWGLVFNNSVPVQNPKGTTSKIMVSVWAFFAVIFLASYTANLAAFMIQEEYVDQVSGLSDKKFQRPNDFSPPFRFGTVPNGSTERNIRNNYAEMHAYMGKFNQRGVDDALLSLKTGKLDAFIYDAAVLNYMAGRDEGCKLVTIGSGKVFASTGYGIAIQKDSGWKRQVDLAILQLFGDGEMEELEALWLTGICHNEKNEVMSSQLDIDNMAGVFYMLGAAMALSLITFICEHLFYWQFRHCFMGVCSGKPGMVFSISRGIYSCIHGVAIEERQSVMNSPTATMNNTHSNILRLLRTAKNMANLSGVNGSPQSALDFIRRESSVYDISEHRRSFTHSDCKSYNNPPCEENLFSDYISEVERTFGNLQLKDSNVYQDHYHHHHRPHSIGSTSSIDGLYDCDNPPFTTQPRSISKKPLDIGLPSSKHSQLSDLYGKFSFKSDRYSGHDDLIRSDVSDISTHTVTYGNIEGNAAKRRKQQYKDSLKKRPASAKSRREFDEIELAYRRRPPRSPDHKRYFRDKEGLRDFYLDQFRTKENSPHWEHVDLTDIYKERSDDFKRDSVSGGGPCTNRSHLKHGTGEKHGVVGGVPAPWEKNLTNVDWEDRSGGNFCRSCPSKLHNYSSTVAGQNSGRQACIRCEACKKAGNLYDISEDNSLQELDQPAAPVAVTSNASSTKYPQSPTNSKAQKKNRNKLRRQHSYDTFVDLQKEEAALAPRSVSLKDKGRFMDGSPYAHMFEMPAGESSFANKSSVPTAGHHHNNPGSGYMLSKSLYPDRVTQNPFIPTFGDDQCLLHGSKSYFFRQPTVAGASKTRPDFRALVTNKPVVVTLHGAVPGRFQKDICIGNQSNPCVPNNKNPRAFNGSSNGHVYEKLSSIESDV
Source text: as §1, §2
(§4) Patch pipettes (3–5 MΩ) were filled with a solution containing (in mM): 120 gluconic acid, 15 CsCl, 10 BAPTA, 10 HEPES, 3 MgCl2, 1 CaCl2, and 2 ATP-Mg salt (pH-adjusted to 7.2 with CsOH). […]

[3] = target: T3, GluN1/GluN2B receptors (Rattus norvegicus, UniProt P35439+Q00960); design: method as in PMID 22188257; details: from −60 to +60 mV; cited from earlier work
T3 construct: expressed in transfected cells; host or cells: HEK293
T3 sequence (Q00960 27-1482, other chains not shown): as above

[4] = target: T3, GluN1/GluN2B receptors; experiment: Whole-cell patch-clamp of GluN1/GluN2B receptor responses in transfected HEK293 cells; assay type: cell-based
Source text: as §1, §2, §3
Experiments were performed at room temperature (21–25 °C). Data were collected (low-pass filtered at 2 kHz and sampled at 10 kHz) and analyzed using pClamp 10 (Molecular Devices). Unless otherwise mentioned, error bars represent SEM; statistical comparison of groups was performed using Student’s t-test (p < 0.05 was used to determine the significance).
The IC50 was determined from a single dose of a steroid using the formula [drawing 1] where I is the relative degree of inhibition and [steroid] is the steroid concentration used. […]

[5] = target: T4, GluN1(V656A)/GluN2B receptors (Rattus norvegicus, UniProt P35439+Q00960, V656A); experiment: Whole-cell patch-clamp of GluN1(V656A)/GluN2B receptor responses in HEK293 cells; assay type: cell-based
T4 construct: expressed in transfected cells; host or cells: HEK293
T4 sequence (Q00960 27-1482, other chains not shown): as above
Source text: as §1, §2, §4

[6] = PA-A 20 μM, fit to the Boltzmann equation
[7] = PA-A 20 μM, fit to the Boltzmann equation, read-out: Kd(0 mV)

Compound	sensitivity of spontaneous currents (absence of glutamate and glycine) to antagonist [1]	voltage dependence of steroid inhibition [2]	δ (apparent electrical distance of the binding site) [2, 6]	Kd [2, 7] [µM]	voltage dependence of inhibition [3]	voltage dependence of steroid inhibition ([4]; WT GluN1/GluN2B)	δ (apparent electrical distance of the binding site) ([4]; WT, PA-A 20 μM, fit to the Boltzmann equation)	Kd ([4]; WT, PA-A 20 μM, fit to the Boltzmann equation, read-out: Kd(0 mV)) [µM]	mode of inhibition ([4]; dependence on receptor activation by agonists)	voltage dependence of steroid inhibition [5]	δ (apparent electrical distance of the binding site) ([5]; fit to the Boltzmann equation)	Kd ([5]; fit to the Boltzmann equation, read-out: Kd(0 mV)) [µM]	voltage dependence of steroid inhibition [1]	δ (apparent electrical distance of the binding site) [1, 6]	Kd [1, 7] [µM]
O=C(O)c1cc(O)c2ccc(Cl)cc2n1 [7-CKA, 7-Cl-kynurenic acid, reference compound]	only moderately sensitive	–	–	–	–	–	–	–	–	–	–	–	–	–	–
N[C@H](CCCP(=O)(O)O)C(=O)O [D-AP5, D-amino-5-phosphonopentanoic acid, reference compound]	only moderately sensitive	–	–	–	–	–	–	–	–	–	–	–	–	–	–
CC(=O)C1CCC2C3CC[C@@H]4C[C@H](OC(=O)C[N+](C)(C)C)CC[C@]4(C)C3CC[C@]12C (stereo partly drawn) [PA-A, 5β-pregnan-20-on 3α-yl-[(2-trimethylammonio)-ethanoate]]	–	intermediate voltage dependence	0.23	745	voltage independent	weak voltage dependence	0.15	335	use-dependent	intermediate voltage dependence	0.19	193	strongly voltage dependent	0.29	340
